Measurements reported in US9345739B2, “Methods and compositions for the treatment of proteinuric diseases” (The General Hospital Corporation, priority 2007, dated 2016).
Entries after “also recorded” stand apart in the source; their conditions may differ.

Assays:
cultured podocytes [1] = test: Scrape wound (wound healing) assay, directed podocyte motility; assay type: cell-based, mouse; details: for directed podocyte motility into the wound track: wild type podocytes, vitronectin-coated surface, treatment for 24 h
Procedure: To study the directional movement of podocytes, a wound healing assay was performed. Briefly, podocytes were seeded on Vn or type I collagen coated cover-slips and cultured for 10 days at 37° C. before treated with LPS or PAN for 12-48 h. To create a scrape wound approximately 0.1 cm wide, the narrow end of a P1000 pipette tip was perpendicularly pushed through the monolayer. Then, cover-slips were washed twice with PBS and incubated in medium. After incubation, cells were fixed with 2% PFA and stained with DAPI for analysis. The cell migratory distance was calculated by averaging the distance from the wound edge to the maximally migrated cell in five distinct border zones.

β3 integrin = test: Active β3 integrin (AP5 staining) in LPS treated cultured podocytes; assay type: cell-based, mouse; details: disruption of lipid rafts
Excerpt: Cultured podocytes were immunolabeled as described previously^8.

cultured podocytes [2] = test: Multiwell Boyden chamber assay, random podocyte migration on vitronectin; assay type: cell-based, mouse; details: wild type podocytes, treatment for 24 h
Procedure: Podocyte migration was analyzed using a 12-well chemotaxis chamber (Neuro Probe) according to the manufacturer's protocol. In brief, differentiated podocytes were treated with 50 μg/ml of LPS or PAN for 24 h and then harvested for the migration assay. Bottom plates were coated with vitronectin or type I collagen, while upper plates were loaded with equal number of cells (5×10^4) suspended in medium. The chamber was incubated at 37° C. for 4 h before the membrane was taken out and stained with diamidino phenylindole (DAPI). The average number of migrated cells was counted in four fields in six independent experiments.

uPAR = test: Induction of uPAR in cultured podocytes, relative quantification; assay type: cell-based, mouse
[3] = target: β3 integrin on cultured mouse podocytes (mouse) (UniProt O54890); test: flow cytometry, LPS treated mouse podocytes, 5 µg/ml AP5, 1 mM EDTA
[4] = target: β3 integrin on cultured mouse podocytes (mouse) (UniProt O54890); test: flow cytometry, LPS treated mouse podocytes, 5 µg/ml AP5, 0.1 mM Ca2+
[5] = target: β3 integrin on cultured mouse podocytes (mouse) (UniProt O54890); test: flow cytometry, LPS treated mouse podocytes, 5 µg/ml AP5, 0.4 mM Ca2+
[6] = target: β3 integrin on cultured mouse podocytes (mouse) (UniProt O54890); test: flow cytometry, LPS treated mouse podocytes, 5 µg/ml AP5, 1.0 mM Ca2+
[7] = target: β3 integrin on cultured mouse podocytes (mouse) (UniProt O54890); test: flow cytometry, LPS treated mouse podocytes, 5 µg/ml AP5, 2.0 mM Ca2+
αvβ3 integrin [8] = target: T1, αvβ3 integrin (Mus musculus, UniProt O54890+P43406); test: Recovery of already existing LPS-induced proteinuria, urine Bradford assay; assay type: in vivo; details: B6 mice, LPS at 0 and 24 h; 25 mg/kg body weight through tail vein 48 h after first injection
T1 construct: from tissue; host or cells: living wild type (C57BL/6, 'B6') mice
T1 sequence (P43406 31-1044): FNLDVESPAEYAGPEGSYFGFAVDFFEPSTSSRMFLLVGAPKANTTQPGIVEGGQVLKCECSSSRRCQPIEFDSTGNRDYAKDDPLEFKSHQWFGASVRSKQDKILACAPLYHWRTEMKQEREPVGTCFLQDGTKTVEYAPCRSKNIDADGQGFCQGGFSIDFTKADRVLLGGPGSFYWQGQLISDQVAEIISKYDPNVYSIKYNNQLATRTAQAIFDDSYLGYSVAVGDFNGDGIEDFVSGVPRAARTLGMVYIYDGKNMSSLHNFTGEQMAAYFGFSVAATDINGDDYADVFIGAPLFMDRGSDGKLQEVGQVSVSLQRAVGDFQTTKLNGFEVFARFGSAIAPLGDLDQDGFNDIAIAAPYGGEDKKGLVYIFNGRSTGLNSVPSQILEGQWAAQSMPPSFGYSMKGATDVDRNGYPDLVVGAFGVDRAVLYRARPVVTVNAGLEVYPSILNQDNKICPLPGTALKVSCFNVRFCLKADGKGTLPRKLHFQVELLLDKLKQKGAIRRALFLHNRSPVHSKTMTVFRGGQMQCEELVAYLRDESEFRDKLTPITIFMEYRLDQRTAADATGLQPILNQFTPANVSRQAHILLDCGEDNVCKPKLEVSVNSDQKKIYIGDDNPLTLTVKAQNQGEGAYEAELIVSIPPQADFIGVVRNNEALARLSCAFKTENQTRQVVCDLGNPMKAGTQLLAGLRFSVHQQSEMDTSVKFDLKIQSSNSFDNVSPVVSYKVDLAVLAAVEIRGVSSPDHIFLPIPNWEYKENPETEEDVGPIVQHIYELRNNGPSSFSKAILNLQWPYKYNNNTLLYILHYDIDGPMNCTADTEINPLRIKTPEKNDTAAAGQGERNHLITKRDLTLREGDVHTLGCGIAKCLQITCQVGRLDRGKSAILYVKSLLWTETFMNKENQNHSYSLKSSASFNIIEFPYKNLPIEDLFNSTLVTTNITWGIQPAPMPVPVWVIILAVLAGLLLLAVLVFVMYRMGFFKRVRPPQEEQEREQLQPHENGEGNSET
T1 sequence (O54890 26-787): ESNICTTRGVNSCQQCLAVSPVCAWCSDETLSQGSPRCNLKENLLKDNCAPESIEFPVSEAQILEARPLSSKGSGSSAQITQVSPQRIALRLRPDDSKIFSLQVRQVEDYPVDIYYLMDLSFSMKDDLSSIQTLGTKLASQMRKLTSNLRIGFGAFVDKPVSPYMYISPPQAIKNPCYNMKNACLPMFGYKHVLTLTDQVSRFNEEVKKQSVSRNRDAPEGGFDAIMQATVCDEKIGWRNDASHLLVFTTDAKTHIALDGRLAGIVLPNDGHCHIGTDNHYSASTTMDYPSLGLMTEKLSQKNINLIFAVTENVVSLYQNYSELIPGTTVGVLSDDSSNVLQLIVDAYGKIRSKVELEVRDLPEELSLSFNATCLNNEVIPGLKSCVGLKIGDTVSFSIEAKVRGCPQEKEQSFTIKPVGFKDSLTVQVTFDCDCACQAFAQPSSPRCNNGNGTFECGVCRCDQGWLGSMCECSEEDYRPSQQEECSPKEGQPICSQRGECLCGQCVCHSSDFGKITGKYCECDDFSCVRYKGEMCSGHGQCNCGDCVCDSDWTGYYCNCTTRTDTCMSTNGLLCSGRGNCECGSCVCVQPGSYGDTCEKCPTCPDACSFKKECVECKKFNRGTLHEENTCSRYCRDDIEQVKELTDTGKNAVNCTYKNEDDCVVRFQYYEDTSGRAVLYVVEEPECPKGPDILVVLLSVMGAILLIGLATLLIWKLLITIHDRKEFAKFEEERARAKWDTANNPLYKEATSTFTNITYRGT
Procedure: B6 mice are injected twice (0, 24 h) with LPS to induce and maintain proteinuria. 48 h after first injection, S247 (n=6) is administered (25 mg/kg body weight) through tail vein. Control (n=5) received the same amount of PBS. 0, 48 h, 66 h urine was collected for Braford assay.

αvβ3 integrin [9] = target: T1, αvβ3 integrin; assay type: in vivo; details: mice, LPS only (200 μg intraperitoneally), urine 24 h after LPS
Procedure: Immediately after the first injection, 200 μg of LPS was injected intraperitoneally into each mouse to induce proteinuria. 24 h after LPS injection, urine was collected for Braford assay.

[10] = test system: wild type and uPAR−/− mice; test: LPS mouse model of proteinuria in wild type and uPAR−/− mice, urine Bradford assay; assay type: in vivo; parameters: unit not given beside the values; details: LPS injection
Excerpt: All animal studies were approved by the Subcommittee on Research Animal Care of the Massachusetts General Hospital. uPAR^−/− mice and uPA^−/− mice on a mixed background of 75% C57BL/6 and 25% 129 Swiss were obtained from University of Leuven, Belgium; Vn^−/− mice (C57BL/6) were obtained from Dr. David Ginsburg, University of Michigan; β3 integrin^−/− mice (C57BL/6) were obtained from Dr. Raghuram Kalluri, Boston. C57BL/6 and 129 Swiss mice were purchased from Jackson Laboratory (Bar Harbor). The LPS mouse model was utilized as previously described^9. The induction of B7-1 was used as a control for the effectiveness of LPS. Rat PAN nephrosis model was set up by a single intraperitoneal injection of puromycin (15 mg/100 g of body weight, Sigma-Aldrich) into Sprague-Dawley rats as described before^27. NZB/W F1 mice were purchased from the Jackson Laboratory and analyzed after 20 weeks when proteinuria and Lupus glomerulonephritis were present. As diabetic nephropathy rat model, we used Sprague Dawley rats treated with Streptozotocin. Hyperglycaemic state was induced by an intraperitoneal Streptozotocin injection (50-70 mg/kg body weight, in citrate buffer 10 mmol/L, pH 4.5). The hyperglycaemic state developed within 48 h and was maintained during the lifetime of the animals. No insulin administration was required. Glycosuria was evaluated with test strips of the Uriscan TM (YD Diagnostics, VWR, Montréal, QC, Canada) and glycaemia with the AccuSoft Monitoring System (Roche Diagnostics, Laval, QC, Canada). At the end of the study, glycaemia values were 4.3±0.53 and 8.5±0.7 mmol/L for 3 months-old and 12 months-old normoglycaemic animals, respectively, and 21.2±0.9 and 33.9±4.0 mmol/L for 3 months-old and 12 months-old diabetic animals, respectively.
uPAR-cDNA plasmids were introduced into uPAR^−/− mouse using the TransIT in vivo gene delivery system (Mims) as described previously^32,8. The following cDNAs and vector constructs were used for gene delivery: uPAR; mutated uPAR D262A^38 (kind gift from Y Wei and H A Chapman, University of California, San Francisco); β3 integrin and the constitutively active form of β3 integrin, D616-690 (β3Δ616-690)^48; Podocin promoter vector p2.5^33 (a kind gift from Dr. L B Holzman, University of Michigan) for Pod-uPAR; ICAM-2 promoter vector^34 for ICAM-2-uPAR. Tissues were analyzed for expression as described previously^8.

Rac1 = test: GTPase activity assay in isolated glomeruli (Rac1); assay type: in vivo, mouse; details: wild type mice co-injected with LPS and RGDfV (every 8 hours for 24 hours)
Procedure: (§1) Rho family small GTPase activity in glomerular lysates was measured by Rho/Rac/Cdc42 activation assay kit (Cell Biolabs, INC.) following the manufacturer's protocol. Isolated glomeruli from wild type and uPAR^−/− mice, some of them treated with LPS (t=0) and with RGDfV (SEQ ID NO: 1) every 8 hours for 24 hours were obtained by standard sieve technique^25. 2 mg of glomerular lysate were used to prepare for positive or negative control by incubating with 10 μl of GTPγS or GDP respectively. For small GTPase pull-down assay, the same amount (2 mg) of glomerulus lysates from different treatments were incubated with 40 μl of Rhotekin RBD or PAK PBD agarose bead slurry for 1 h at 4° C. After washing 3 times with 1× assay buffer, beads were harvested and resuspended in LDS sample buffer. Samples were heated for 10 min at 70° C. before SDS-PAGE. After electrophoresis and protein transfer, the membranes were blocked with 5% milk, and incubated with anti-Rho, anti-Rac, and anti-Cdc42 antibodies for 1 h, followed by second antibody incubation and detection with ECL (Pierce). For loading control, 100 μg of glomerular lysates from different treatments were applied and immunoblotted with the same anti-Rho, anti-Cdc42 and anti-Rac antibodies as used above.

cdc42 = test: GTPase activity assay in isolated glomeruli (cdc42); assay type: in vivo, mouse; details: wild type mice co-injected with LPS and RGDfV (every 8 hours for 24 hours)
Procedure: as §1

Compound: urokinase
- podocyte directional migration / motility (cultured podocytes [1]; cultured podocytes, addition of external urokinase): did not alter; also recorded: did not modify

Compound: Methyl-β-cyclodextrin
- activation of β3 integrin in response to LPS (AP5 staining) (β3 integrin): abrogated

Compound: CN(C)c1ncnc2c1ncn2[C@@H]1O[C@H](CO)[C@@H](N)[C@H]1O [PAN, puromycin aminonucleoside]
- directed podocyte motility into the wound track (cultured podocytes [1]): 79.31±3.72
- podocyte migration (migrated podocytes) (cultured podocytes [2]): 67±4.9
- Relative quantification of uPAR induction (uPAR): 0.61±0.10

Compound: anti-active β3 integrin antibody AP5 (GTI)
- Fluorescent intensity units (fluorescent intensity units) [3]: 3020
- Fluorescent intensity units (fluorescent intensity units) [4]: 3060
- Fluorescent intensity units (fluorescent intensity units) [5]: 1640
- Fluorescent intensity units (fluorescent intensity units) [6]: 535
- Fluorescent intensity units (fluorescent intensity units) [7]: 312

Compound: O=C(O)C[C@H](NC(=O)CNC(=O)c1cncc(NC2=NCC(O)CN2)c1)c1cc(Cl)cc(Br)c1O (stereo partly drawn) [S247]
- already existing proteinuria; urinary protein at timepoint 66 h (αvβ3 integrin [8]): Reduction of urinary protein

Compound: lipopolysaccharide [LPS]
- proteinuria (urine Bradford assay) (αvβ3 integrin [9]): 0.924±0.1055
- directed podocyte motility into the wound track (cultured podocytes [1]): 85.34±4.1
- podocyte migration (migrated podocytes) (cultured podocytes [2]): 72±5.5
- Relative quantification of uPAR induction (uPAR): 0.49±0.06
- proteinuria (urine Bradford assay) ([10]; uPAR−/− mice reconstituted with uPAR-cDNA): 0.92±0.46
- proteinuria (urine Bradford assay) ([10]; uPAR−/− mice which received control plasmids): 0.26±0.15
- proteinuria (urine Bradford assay) ([10]; uPAR−/− mice): 0.32±0.14
- proteinuria (urine Bradford assay) ([10]; wild type mice): 0.82±0.32

Compound: cyclo-[Arg-Gly-Asp-D-Phe-Val] [cyclo-RGDfV]
- induction of active Rac1 in glomeruli (Rac1): inhibited
- induction of active cdc42 in glomeruli (cdc42): inhibited
